Key:
[1] = test system: THP1-Dual™ reporter cells; experiment: THP1-Dual cell reporter assay (IRF-Lucia luciferase reporter); assay type: cell-based, human; conditions: for EC50: Homo sapiens, THP1-Dual, free compounds, 24 h, Lucia reporter signal, read-out: EC50; for potency relative to other free compound: free drug
Summary of the method: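 THP1-Dual monocytic cells (~100,000/well) were exposed to compound for 24 h (ADCs 48 h). Secreted IRF-driven Lucia luciferase in the supernatant was quantified by QUANTI-Luc luminescence.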

786-O = experiment: Cancer cell direct cytotoxicity assay (CellTiter-Glo), 786-O; assay type: cell-based; conditions: Homo sapiens, 786-0, 96 h, free compound, read-out: Compound X50
Experimental: (§1) Bystander activity of ADCs was evaluated using Renca cancer cells and THP1-Dual™ cells (InvivoGen) which contain an IRF-Lucia luciferase reporter. Cells were cultured in RPMI-1640 (Gibco) with 10% heat-inactivated fetal bovine serum, Pen-Strep (100 U/ml-100 μg/ml, Gibco), HEPES (10 mM, Gibco), sodium pyruvate (1 mM, Gibco), MEM non-essential amino acids (1×, Gibco), GlutaMAX (1×, Gibco), and beta-mercaptoethanol (55 μM, Gibco). Renca cells were plated in a 96-well flat bottom tissue culture-treated clear polystyrene plate (Corning Costar #3596) at 50,000 cells per well in 100 μL. On the day following the initial plating, 50,000 THP1-Dual™ cells were added to each well with the indicated concentration of ADC in a total volume of 200 μL. Supernatant was harvested at 48 hours post addition of the THP1-Dual™ cells. To measure Lucia reporter signal, 10 μL of supernatant was combined with 40 μL of QUANTI-Luc™ Luminescence assay reagent (Invivogen PN: rep-qlc1) in a 96-well clear flat bottom tissue culture-treated black polystyrene plate (Corning Costar PN: 3603) and read on a Perkin Elmer Envision plate reader. In some experiments, HEK 293T cells engineered to express a murine protein typically expressed by immune cells (target antigen C— an immune cell antigen) were plated as above instead of Renca tumor cells. Cancer Cell Direct Cytotoxicity Assay
(§2) Cancer cells were counted and plated in 40 μL complete growth media in 384-well, white-walled tissue culture treated plates (Corning). Cell plates were incubated at 37° C. and with 5% CO2 overnight to allow the cells to equilibrate. Stock solutions containing ADCs or free drugs were serially diluted in RPMI-1640+20% fetal bovine serum (FBS). 10 μL of each concentration were then added to each cell plate in duplicate. Cells were then incubated at 37° C. and with 5% CO2 for 96 hours, upon which, the cell plates were removed from the incubator and allowed to cool to room temperature for 30 minutes prior to analysis. […] The luminescence of the samples was measured using an EnVision Multimode plate reader (Perkin Elmer, Waltham, MA). […]

BxPC3 = experiment: Cancer cell direct cytotoxicity assay (CellTiter-Glo), BxPC3; assay type: cell-based; conditions: Homo sapiens, BXPC-3; BxPC3, 96 h, free compound; read-out: Compound X50
Experimental: as §1, §2

DEL = experiment: Cancer cell direct cytotoxicity assay (CellTiter-Glo), DEL; assay type: cell-based; conditions: Homo sapiens, 96 h, free compound, read-out: Compound X50
Experimental: as §1, §2

Karpas299 = experiment: Cancer cell direct cytotoxicity assay (CellTiter-Glo), Karpas299; assay type: cell-based; conditions: Homo sapiens, KARPAS-299; Karpas299, 96 h, free compound; read-out: Compound X50
Experimental: as §1, §2

L540cy = experiment: Cancer cell direct cytotoxicity assay (CellTiter-Glo), L540cy; assay type: cell-based; conditions: Homo sapiens, 96 h, free compound, read-out: Compound X50
Experimental: as §1, §2

MOLM-13 = experiment: Cancer cell direct cytotoxicity assay (CellTiter-Glo), MOLM-13; assay type: cell-based; conditions: Homo sapiens; MOLM-13, 96 h, free compound; read-out: Compound X50
Experimental: as §1, §2

SU-DHL-4 = experiment: Cancer cell direct cytotoxicity assay (CellTiter-Glo), SU-DHL-4; assay type: cell-based; conditions: Homo sapiens; SU-DHL-4, 96 h, free compound; read-out: Compound X50
Experimental: as §1, §2

Renca cancer cells = experiment: Renca tumor model, in vivo anti-tumor activity and weight change; conditions: for anti-tumor activity / tumor growth delay: Renca tumor-bearing Balb/c mice
Experimental: In some experiments, Renca tumor cells were engineered to express the indicated murine or human target antigen.
When tumor volumes reached 100 mm^3, the mice were dosed with either compounds or ADCs by intraperitoneal or intravenous injection at the indicated dosing schedule and tumor volumes were monitored twice weekly. Compounds were formulated in 40% PEG400 in saline.
A syngeneic system was used to assess the ability of the STING agonist ADCs to induce immune responses in vivo and drive an anti-tumor immune response. The Renca system is a subcutaneous, mouse renal adenocarcinoma model. Female Balb/c mice were implanted with 2×10^6 Renca cells subcutaneously in the flank on day 0. When mean tumor size of 100 mm^3 (measured by using the formula Volume (mm^3)=0.5*Length*Width^2 where length is the longer dimension) was reached mice were randomized into treatment groups of ≥5 mice per group. Animals were then treated intraperitoneally (ADCs or compounds) or intravenously (compounds) with the indicated treatment every 7 days, for 3 doses total (or as indicated). Tumor length and width and the weight of the animals was measured throughout the study and tumor volume was calculated using the formula above. Animals were followed until the tumor volume reached ˜1000 mm^3; animals were then euthanized.

Compound	EC50 [1] [nM]	potency relative to other free compound [1]	IC50 (786-O) [nM]	IC50 (BxPC3) [nM]	IC50 (DEL) [nM]	IC50 (Karpas299) [nM]	IC50 (L540cy) [nM]	IC50 (MOLM-13) [nM]	IC50 (SU-DHL-4) [nM]	anti-tumor activity / tumor growth delay (Renca cancer cells; q7dx3)	tolerability (Renca cancer cells; Renca tumor-bearing mice)	average weight loss after the 1st and 2nd dose (Renca cancer cells; Renca tumor-bearing mice, q7dx3) [%]
CCn1nc(C)cc1C(=O)Nc1nc2cc(C(N)=O)cc(OC)c2n1C/C=C/Cn1c(NC(=O)c2cc(C)nn2CC)nc2cc(C(N)=O)cc(OCCCNC)c21 [Compound 12a]	21	less potent than compound 1 and compound A	> 1000	> 1000	3	> 1000	83	87	> 1000	limited anti-tumor efficacy		
CCn1nc(C)cc1C(=O)Nc1nc2cc(C(N)=O)cc(O)c2n1C/C=C/Cn1c(NC(=O)c2cc(C)nn2CC)nc2cc(C(N)=O)cc(OC)c21 [Compound 1, (E)-1-(4-(5-carbamoyl-2-(1-ethyl-3-methyl-1H-pyrazole-5-carboxamido)-7-hydroxy-1H-benzo[d]imidazol-1-yl)but-2-en-1-yl)-2-(1-ethyl-3-methyl-1H-pyrazole-5-carboxamido)-7-methoxy-1H-benzo[d]imidazole-5-carboxamide]	5	significantly more potent	> 1000	> 1000	2	> 1000	31	42	> 1000	some tumor growth delay	well tolerated	< 5
